For this assay, the system named is classical Hodgkin's Lymphoma patient. In words: Case study: treatment of a classical Hodgkin's Lymphoma patient, response by CT/MRI scan and PET scan (Cheson criteria). The class given is in vivo, human. The following applies: 150 mg orally 1 time a day, Cheson 2007 criteria. The method, then: A classical Hodgkin's Lymphoma patient, diagnosed with Stage II in Hodgkin Lymphoma in January 2006, and previously treated with radiotherapy and three different regimens of chemotherapy, including an autologous stem cell transplantation was treated with 150 mg of the compound of formula (I), administered orally 1 time a day. In addition to the compound of formula (I), the patient was taking the following medications and dosages: (a) DEKRISTOL (cholecalciferol), 20000 I.U. QOD for vitamin deficiency, (b) methylphenidate hydrochloride, 20 mg DAILY for fatigue, (c) ibuprofen, 600 mg PRN for back pain, and (d) VALORON N (tilidine) 50 IN 20 DROPS PRN for back pain.
Response to treatment was evaluated by tumor assessments using CT/MRI scan and PET scan, resulting in an individual response for each technique. In addition, an overall response evaluation was completed, taking into account both scan results. Response evaluations were completed according to the criteria as set forth in CHESON, B. D., et al., J. Clin. Oncology, 2007, pp579-586, Vol. 25(5).

This note sets out measurements from patent publication US20160015700A1, “4-CYANO-N-(2-(4,4-DIMETHYLCYCLOHEX-1-EN-1-YL)-6-(2,2,6,6-TETRAMETHYLTETRAHYDRO-2H-PYRAN-4-YL)PYRIDIN-3-YL)-1H-IMIDAZOLE-2-CARBOXAMIDE FOR THE TREATMENT OF HODGKIN'S LYMPHOMA” (JANSSEN PHARMACEUTICA NV, priority 2013, published 2016).

The structures appear in SMILES notation.

For `CC1(C)CC=C(c2nc(C3CC(C)(C)OC(C)(C)C3)ccc2NC(=O)c2nc(C#N)c[nH]2)CC1` [compound of formula (I), 4-cyano-N-(2-(4,4-dimethylcyclohex-1-en-1-yl)-6-(2,2,6,6-tetramethyltetrahydro-2H-pyran-4-yl)pyridin-3-yl)-1H-imidazole-2-carboxamide], the “response status at later follow-up” value (as of 13 Mar. 2013) is recorded as “still in complete response”. Under “evaluated after 121 days of treatment, previously treated classical Hodgkin's Lymphoma patient”, the “overall response to treatment” value was “complete response to treatment”.
